Holding throughout (type): cell-based
Assay [1] concerns HBC-5 breast cancer cells. Put plainly: antitumor activity, sulforhodamine B cell growth assay, HBC-5. Conditions: HBC5; HBC-5 breast cancer cells; read-out: antitumor activity GI50 value: 50% growth inhibitory concentration. Summed up:
(§1)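 Cells were seeded in RPMI 1640 with 5% FBS, allowed to adhere overnight, then exposed to compound for 48 h. Growth was measured by sulforhodamine B staining at 525 nm, with a time-zero (T0) reading. Log GI50, TGI and LC50 were taken where % growth crossed 50, 0 and −50%.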

The test system of assay [2] is MKN-A gastric cancer cells. The experiment in a line: antitumor activity, sulforhodamine B cell growth assay, MKN-A. Conditions: MKN-A gastric cancer cells; read-out: antitumor activity GI50 value: 50% growth inhibitory concentration. The gist of the method: as §1
Assay [3] concerns HCC2998 colorectal cancer cells. The experiment in a line: antitumor activity, sulforhodamine B cell growth assay, HCC2998. The conditions noted are these: Homo sapiens, HCC 2998; HCC2998 colorectal cancer cells; read-out: antitumor activity GI50 value: 50% growth inhibitory concentration. The gist of the method: as §1
Assay [4] concerns SF-268 central nervous system cancer cells. The experiment in a line: antitumor activity, sulforhodamine B cell growth assay, SF-268. Conditions: Homo sapiens; SF-268 central nervous system cancer cells; read-out: antitumor activity GI50 value: 50% growth inhibitory concentration. Summed up: as §1
The test system of another assay is OVCAR-3 cancer cells. Put plainly: antitumor activity, sulforhodamine B cell growth assay, OVCAR-3. Conditions: Homo sapiens; OVCAR-3 cervical cancer cells; read-out: antitumor activity GI50 value: 50% growth inhibitory concentration. Summed up: as §1
Assay [5] deals with SF-539 central nervous system cancer cells. Put plainly: antitumor activity, sulforhodamine B cell growth assay, SF-539. Conditions: Homo sapiens; SF-539 central nervous system cancer cells; read-out: antitumor activity GI50 value: 50% growth inhibitory concentration. The gist of the method: as §1
Assay [6] concerns various cancer cell lines. Put plainly: Verification of antitumor activity, whole panel of cancer cell lines. Conditions: in words, compared with Cyanosafracin B. On the procedure:
The THIQ compound containing a macrocyclic structure of the present invention was administered to various cancer cell lines, and the antitumor activity (Go value) was observed. Specifically, verification was performed according to the literature (Yamori, T.; Matsunaga, A.; Sato, S.; Yamazaki, K.; Komi, A.; Ishizu, K. et al. Cancer Res. 1999, 59, 4042) by the following procedure.
Cells were plated at an appropriate density in a 96-well plate in RPMI 1640 together with 5% fetal bovine serum, and adhered overnight. The cells were exposed to a drug for 48 hours. Then, according to the sulforhodamine B assay described by Skehan et al (Skehan P., Storeng R., Scudiero D., Monks A., McMahon J., Vistica D., Warren J. T., Bokesch H., Kenney S., Boyd M. R. J Natl. Cancer Inst, 1990, 82, 1107-1112), the cell growth rate was measured. The absorbance of the control well (C) and the test well (T) was measured at 525 nm. In addition, the time at which the drug was added was set as time 0, and the absorbance for the test well (T0) was measured. Using these measured values, the cell growth inhibitory effect (% growth=PG) was calculated by the following formula at each concentration of the drug.
(T<T0): PG=100×[(T−T0)/T]
The PG values determined above for each cell line were plotted against the concentration (logarithm) on a semi-logarithmic graph, and summarized for each visceral cancer. Concentrations at which the dose-response curve of each cell line crossed the horizontal line of PG=50%, 0%, or −50% were calculated. These concentrations were defined as Log GI50, Log TGI, and Log LC50. Actually, using two data points of the drug concentration before and after crossing each horizontal line, the drug concentration (logarithmic value) at the intersection of the straight line connecting the two points and the horizontal line for each PG was calculated.

For assay [7], the system named is MKN45 gastric cancer cells. The experiment in a line: antitumor activity, sulforhodamine B cell growth assay, MKN45. The conditions noted are these: Homo sapiens, MKN-45; MKN45 gastric cancer cells; read-out: antitumor activity GI50 value: 50% growth inhibitory concentration. The gist of the method:
as §1

Assay [8] concerns MKN-B gastric cancer cells. The experiment in a line: antitumor activity, sulforhodamine B cell growth assay, MKN-B. The conditions noted are these: MKN-B gastric cancer cells; read-out: antitumor activity GI50 value: 50% growth inhibitory concentration. The gist of the method:
as §1

The subject of assay [9] is NCI-H23 lung cancer cells. Put plainly: antitumor activity, sulforhodamine B cell growth assay, NCI-H23. The conditions noted are these: Homo sapiens, NCI-H23; NCl-H23 lung cancer cells; read-out: antitumor activity GI50 value: 50% growth inhibitory concentration. The gist of the method:
as §1

In assay [10] the test system is SF-295 central nervous system cancer cells. Put plainly: antitumor activity, sulforhodamine B cell growth assay, SF-295. The conditions noted are these: Homo sapiens; SF-295 central nervous system cancer cells; read-out: antitumor activity GI50 value: 50% growth inhibitory concentration. Summed up:
as §1

In assay [11] the test system is HBC-4 breast cancer cells. Put plainly: antitumor activity, sulforhodamine B cell growth assay, HBC-4. Conditions: HBC4; HBC-4 breast cancer cells; read-out: antitumor activity GI50 value: 50% growth inhibitory concentration. Summed up: as §1
Assay [12] has as its system MKN1 gastric cancer cells. The experiment in a line: antitumor activity, sulforhodamine B cell growth assay, MKN1. The conditions noted are these: Homo sapiens, MKN-1; MKN1 gastric cancer cells; read-out: antitumor activity GI50 value: 50% growth inhibitory concentration. Summed up:
as §1

The subject of the next assay is SK-OV-3 cancer cells. The experiment in a line: antitumor activity, sulforhodamine B cell growth assay, SK-OV-3. The conditions noted are these: Homo sapiens; SK-OV-3 cervical cancer cells; read-out: antitumor activity GI50 value: 50% growth inhibitory concentration. The gist of the method:
as §1

Assay [13] relates to HCT-15 colorectal cancer cells. Put plainly: antitumor activity, sulforhodamine B cell growth assay, HCT-15. Conditions: Homo sapiens; HCT-15 colorectal cancer cells; read-out: antitumor activity GI50 value: 50% growth inhibitory concentration. The gist of the method: as §1
For assay [14], the system named is NCI-H226 lung cancer cells. The experiment in a line: antitumor activity, sulforhodamine B cell growth assay, NCI-H226. The conditions noted are these: Homo sapiens, NCI-H226; NCl-H226 lung cancer cells; read-out: antitumor activity GI50 value: 50% growth inhibitory concentration. Summed up: as §1
For the next assay, the system named is OVCAR-4 cancer cells. Put plainly: antitumor activity, sulforhodamine B cell growth assay, OVCAR-4. The conditions noted are these: Homo sapiens; OVCAR-4 cervical cancer cells; read-out: antitumor activity GI50 value: 50% growth inhibitory concentration. The gist of the method:
as §1

The subject of assay [15] is OVCAR-5 cervical cancer cells. The experiment in a line: antitumor activity, sulforhodamine B cell growth assay, OVCAR-5. The conditions noted are these: Homo sapiens; OVCAR-5 cervical cancer cells; read-out: antitumor activity GI50 value: 50% growth inhibitory concentration. Summed up:
as §1

The subject of assay [16] is SNB-78 central nervous system cancer cells. The experiment in a line: antitumor activity, sulforhodamine B cell growth assay, SNB-78. The conditions noted are these: Homo sapiens; SNB-78 central nervous system cancer cells; read-out: antitumor activity GI50 value: 50% growth inhibitory concentration. The gist of the method: as §1
A further assay relates to ACHN kidney cancer cells. Put plainly: antitumor activity, sulforhodamine B cell growth assay, ACHN. Conditions: Homo sapiens; ACHN kidney cancer cells; read-out: antitumor activity GI50 value: 50% growth inhibitory concentration. The gist of the method:
as §1

Assay [17] deals with NCI-H522 lung cancer cells. Put plainly: antitumor activity, sulforhodamine B cell growth assay, NCI-H522. The conditions noted are these: Homo sapiens, NCI-H522; NCl-H522 lung cancer cells; read-out: antitumor activity GI50 value: 50% growth inhibitory concentration. Summed up: as §1
In assay [18] the test system is MDA-MB-231 breast cancer cells. The experiment in a line: antitumor activity, sulforhodamine B cell growth assay, MDA-MB-231. The conditions noted are these: Homo sapiens; MDA-MB-231 breast cancer cells; read-out: antitumor activity GI50 value: 50% growth inhibitory concentration. The gist of the method: as §1

Experimental findings from patent publication US20240197726A1, “NOVEL TETRAHYDROISOQUINOLINE ALKALOID COMPOUND CONTAINING MACROCYCLE” (THE UNIVERSITY OF TOKYO, priority 2021, published 2024) are described below.

Where only a bound is given, the exact number is not on record here.

As for `C#CCN1C(=O)[C@H]2[C@@H]3C=C(COc4c(C)c5c(c6c4C[C@H]4[C@H]7c8c(cc(C)c(OC)c8O)C[C@@H]([C@H](C#N)N4C6CNC(=O)[C@H](C)NC(=O)OC3)N7C)OCO5)C[C@H]2C1=O` [Compound 47], the GI50 is 300 nM in [1]; 1400 nM in assay [2]; 410 nM in assay [3]; 620 nM in [4]; 330 nM in the assay with OVCAR-3 cancer cells; 290 nM in [5]. The GI50 in [7] turned out to be 470 nM; in assay [8], 730 nM; in [9], 850 nM; in [10] it was 1800 nM; in [11] it was 200 nM; in [12], 290 nM. For the same molecule, the GI50 with SK-OV-3 cancer cells turned out to be 3900 nM; in assay [13], 2200 nM; in assay [14], 2300 nM; in the assay on OVCAR-4 cancer cells it was 3500 nM; in assay [15] it was 2800 nM; in assay [16] it was 260 nM. The GI50 worked out at 2600 nM in the assay on ACHN kidney cancer cells, 29 nM in assay [17] and 180 nM in assay [18]. For the same molecule, the antitumor activity result in assay [6] is “better antitumor activity than Cyanosafracin B”.
Turning to `C#CCN1C/C=C/COc2c(C)c3c(c4c2C[C@H]2[C@H]5c6c(cc(C)c(OC)c6O)C[C@@H]([C@H](C#N)N2C4CNC(=O)[C@@H]1C)N5C)OCO3` [Compound 44], the GI50 (in assay [1]; in [2]; in assay [3]; in assay [4]; in the assay on OVCAR-3 cancer cells; in assay [5]) was < 10 nM throughout. Further, the GI50 in assay [7], in [8], in [9], in [10], in assay [11] and in assay [12] was < 10 nM in each case. Besides, the GI50 (in the assay on SK-OV-3 cancer cells; in assay [13]; in assay [14]; in the assay with OVCAR-4 cancer cells; in assay [15]; in assay [16]) was < 10 nM in each case. The GI50 (with ACHN kidney cancer cells; in assay [17]; in [18]) was < 10 nM throughout. In assay [6], the antitumor activity entry is “better antitumor activity than Cyanosafracin B”.
